From patent US20150282488A1, “COMPOSITIONS AND METHODS FOR CONTROLLING PLANT-PARASITE NEMATODE” (BAYER CROPSCIENCE LP, priority 2012, published 2015)

Test system: R. reniformis
Test: Greenhouse trial with treated cotton seeds in autoclaved soil
Format: in vivo, Rotlyenchulus reniformis
Details: seed treatment 500 g ai/100 kg
Description: Anti-nematodal activity is understood as meaning any activity useful in controlling or killing nematodes, such as reducing nematode egg hatching or paralyzing juveniles of nematodes. Testing for anti-nematodal activity is done both in-vitro and in-vivo through laboratory and greenhouse procedures. In-vitro testing can involve testing eggs and/or juvenile nematodes in selective media in small 96-well plates and measurements done by microscopic evaluations. Proper control treatments would be combined to monitor and compare activity. Under greenhouse studoes soil was autoclaved using two 90 minute cycles at 130° C. at […] pressure with a 24 hour cool down between cycles to remove any natural competition for the microflora. The vermiform stages were extracted from the soil by the modified gravity screening and sucrose centrifugation-flotation. Eggs stages were extracted from cotton roots by shaking the root system in a 1% NaOCl solution for four minutes at 120 rpm. The nematode suspension was collected and rinsed with water through a 25 μm sieve. Females in roots were stained with acid fuschin to facilitate enumeration of the females invading the root. Variables measured included plant height, shoot and root weights, females and eggs per gram of root, and the number of vermiform life stages in soil. […]
Rotlyenchulus reniformis vermiform life stages were extracted from the soil by modified gravity screening and sucrose centrifugation-flotation. […] Vermiform life stages and eggs were counted under an inverted TS 100 Nikon microscope at 40× magnification. Females embedded in the root systems were quantified at 5× magnification utilizing the Nikon SMZ800 […] microscope. Variables measured were plant height, shoot and root weight, females and eggs per gram of root, and the number of vermiform life stages in 500 cm^3 of soil. […] Data were analyzed in SAS 9.1 (SAS Institute Inc.). The distributional assumption was evaluated with the student panel graphs of the GLIMMIX procedure. […]

O=[N+]([O-])NC1=NCCN1Cc1ccc(Cl)nc1 [imidacloprid]
effect on R. reniformis life stages: did not have any effect
effect on cotton plant growth: did not have any effect
nematicidal activity: did not show any nematicidal activity
